This note sets out measurements from patent US10392391B2 (Vertex Pharmaceuticals Incorporated, priority 2012, dated 2019).

Bounds are passed on as bounds.

One experiment deals with ATR kinase (full-length ATR) (Homo sapiens (Human), UniProt Q13535). As to the kind of experiment: ATR inhibition assay (radioactive-phosphate incorporation). The class given is biochemical.
Sequence of ATR kinase (full-length ATR) (Q13535 whole entry): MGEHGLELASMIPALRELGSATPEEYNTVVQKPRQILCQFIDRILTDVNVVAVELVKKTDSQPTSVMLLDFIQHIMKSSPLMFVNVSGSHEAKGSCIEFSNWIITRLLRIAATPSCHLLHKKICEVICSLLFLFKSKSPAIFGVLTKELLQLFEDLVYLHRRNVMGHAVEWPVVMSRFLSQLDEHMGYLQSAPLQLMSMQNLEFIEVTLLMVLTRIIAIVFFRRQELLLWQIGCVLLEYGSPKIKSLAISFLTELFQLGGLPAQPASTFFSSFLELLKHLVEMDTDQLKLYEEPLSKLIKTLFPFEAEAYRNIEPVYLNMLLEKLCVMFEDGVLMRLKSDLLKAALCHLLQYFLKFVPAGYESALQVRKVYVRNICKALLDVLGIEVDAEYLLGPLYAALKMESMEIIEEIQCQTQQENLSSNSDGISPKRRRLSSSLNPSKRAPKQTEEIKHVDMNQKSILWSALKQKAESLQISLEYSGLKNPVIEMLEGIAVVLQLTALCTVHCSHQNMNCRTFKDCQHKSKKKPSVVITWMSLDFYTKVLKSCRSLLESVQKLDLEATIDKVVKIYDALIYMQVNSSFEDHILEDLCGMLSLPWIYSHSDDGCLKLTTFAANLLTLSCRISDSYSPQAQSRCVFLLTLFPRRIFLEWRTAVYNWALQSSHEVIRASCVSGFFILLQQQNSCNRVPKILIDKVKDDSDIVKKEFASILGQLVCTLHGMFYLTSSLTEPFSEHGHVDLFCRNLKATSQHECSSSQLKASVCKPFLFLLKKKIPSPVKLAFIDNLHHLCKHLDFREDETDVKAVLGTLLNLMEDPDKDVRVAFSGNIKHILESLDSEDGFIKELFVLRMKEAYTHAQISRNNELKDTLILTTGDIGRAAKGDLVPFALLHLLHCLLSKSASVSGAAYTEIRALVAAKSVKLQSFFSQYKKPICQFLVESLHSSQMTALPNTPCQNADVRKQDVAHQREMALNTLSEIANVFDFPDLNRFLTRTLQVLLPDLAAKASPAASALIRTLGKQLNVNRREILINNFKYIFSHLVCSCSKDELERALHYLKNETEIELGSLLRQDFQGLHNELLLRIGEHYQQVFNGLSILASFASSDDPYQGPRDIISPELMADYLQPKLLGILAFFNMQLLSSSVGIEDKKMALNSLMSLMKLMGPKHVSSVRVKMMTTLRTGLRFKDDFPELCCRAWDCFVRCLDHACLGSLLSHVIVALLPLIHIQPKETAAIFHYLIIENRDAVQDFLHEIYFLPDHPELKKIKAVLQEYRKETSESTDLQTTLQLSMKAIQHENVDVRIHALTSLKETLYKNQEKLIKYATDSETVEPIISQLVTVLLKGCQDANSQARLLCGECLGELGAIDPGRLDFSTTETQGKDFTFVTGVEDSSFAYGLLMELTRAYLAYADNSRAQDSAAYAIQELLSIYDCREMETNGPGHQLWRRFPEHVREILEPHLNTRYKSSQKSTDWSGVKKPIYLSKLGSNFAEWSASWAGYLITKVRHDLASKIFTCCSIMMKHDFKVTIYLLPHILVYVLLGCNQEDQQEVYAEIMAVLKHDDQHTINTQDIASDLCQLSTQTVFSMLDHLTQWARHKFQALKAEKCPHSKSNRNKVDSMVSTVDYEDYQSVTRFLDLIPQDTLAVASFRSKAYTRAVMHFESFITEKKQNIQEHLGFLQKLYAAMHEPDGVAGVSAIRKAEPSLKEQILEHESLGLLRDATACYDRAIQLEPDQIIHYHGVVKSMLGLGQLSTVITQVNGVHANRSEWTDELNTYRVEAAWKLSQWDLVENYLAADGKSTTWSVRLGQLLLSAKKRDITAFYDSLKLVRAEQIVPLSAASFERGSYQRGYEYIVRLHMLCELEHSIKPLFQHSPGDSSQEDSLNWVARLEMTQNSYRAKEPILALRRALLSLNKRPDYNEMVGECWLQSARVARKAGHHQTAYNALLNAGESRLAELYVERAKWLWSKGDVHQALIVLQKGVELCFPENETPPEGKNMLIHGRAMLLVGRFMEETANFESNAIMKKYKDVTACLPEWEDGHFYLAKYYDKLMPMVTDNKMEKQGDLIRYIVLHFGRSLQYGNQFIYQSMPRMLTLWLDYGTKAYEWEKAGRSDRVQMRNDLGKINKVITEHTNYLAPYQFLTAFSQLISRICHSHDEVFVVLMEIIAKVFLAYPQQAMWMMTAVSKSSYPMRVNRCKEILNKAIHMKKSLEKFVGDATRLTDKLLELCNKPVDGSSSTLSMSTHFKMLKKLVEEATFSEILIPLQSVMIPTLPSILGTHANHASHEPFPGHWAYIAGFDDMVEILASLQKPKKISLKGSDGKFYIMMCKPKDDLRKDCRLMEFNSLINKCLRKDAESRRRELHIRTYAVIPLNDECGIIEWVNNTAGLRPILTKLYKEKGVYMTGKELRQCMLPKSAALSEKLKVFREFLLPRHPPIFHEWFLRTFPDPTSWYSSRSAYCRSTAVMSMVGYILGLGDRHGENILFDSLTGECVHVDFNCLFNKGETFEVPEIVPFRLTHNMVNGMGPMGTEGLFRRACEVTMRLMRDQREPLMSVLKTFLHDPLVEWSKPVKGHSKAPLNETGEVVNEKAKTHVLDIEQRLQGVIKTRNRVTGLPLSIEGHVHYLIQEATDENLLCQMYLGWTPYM
Conditions: not given
The essentials:
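Ki(app) was fitted by non-linear regression to background-corrected initial rates. Full-length ATR (5 nM) phosphorylated 800 μM peptide using 10 μM [γ-33P]ATP at 25° C in Tris/HCl pH 7.5 buffer with MgCl2, DTT and 7% DMSO. After 10-minute compound pre-incubation and 24-hour reaction, phosphocellulose filters were scintillation counted.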
For `Nc1nn2cc(F)cnc2c1C(=O)Nc1cnccc1N1CCCCCC1` [I-N-264, 2-amino-N-(4-(azepan-1-yl)pyridin-3-yl)-6-fluoropyrazolo[1,5-a]pyrimidine-3-carboxamide], the Ki was in the range of 1 to 5 µM.

The same experiment, now with this note: Ki(app), 5 nM full-length ATR, 10 μM ATP, 25° C.
Regarding `CS(=O)(=O)C1CN(C(=O)C2CCN(c3ccncc3NC(=O)c3c(N)nn4cc(F)cnc34)CC2)C1` [I-G-89, 2-amino-6-fluoro-N-(4-(4-(3-(methylsulfonyl)azetidine-1-carbonyl)piperidin-1-yl)pyridin-3-yl)pyrazolo[1,5-a]pyrimidine-3-carboxamide], the Ki fell in the range of 0.01 to 1 µM.

On to `Nc1nn2cc(F)cnc2c1C(=O)Nc1cnccc1-n1cccn1` [I-N-26, N-(4-(1H-pyrazol-1-yl)pyridin-3-yl)-2-amino-6-fluoropyrazolo[1,5-a]pyrimidine-3-carboxamide], for which the Ki is 0.01 to 1 µM.

Take `CN1CCC(c2ccncc2NC(=O)c2c(N)nn3cc(F)cnc23)CC1=O` (stereo not drawn) [I-C-73, 2-amino-6-fluoro-N-(4-(1-methyl-2-oxopiperidin-4-yl)pyridin-3-yl)pyrazolo[1,5-a]pyrimidine-3-carboxamide]: the Ki was 0.01 to 1 µM.

Take `Nc1nn2cc(F)cnc2c1C(=O)Nc1cnccc1-c1cccnc1O` [I-C-32, 2-amino-6-fluoro-N-(2-hydroxy-[3,4′-bipyridin]-3′-yl)pyrazolo[1,5-a]pyrimidine-3-carboxamide]: the Ki fell in the range of 0.01 to 1 µM.

`N#CCc1cnc2c(C(=O)Nc3cnccc3O[C@@H]3CCNC3)c(N)nn2c1` [I-O-87, (R)-2-amino-6-(cyanomethyl)-N-(4-(pyrrolidin-3-yloxy)pyridin-3-yl)pyrazolo[1,5-a]pyrimidine-3-carboxamide]: the Ki was in the range of 0.01 to 1 µM.

`CC(C#N)c1cnc2c(C(=O)Nc3cncc(F)c3N3CCN(C4COC4)CC3)c(N)nn2c1` (stereo not drawn) [I-N-145]: the Ki is 0.01 to 1 µM.

Regarding `CN1CCN(c2c(F)cncc2NC(=O)c2c(N)nn3cc(F)cnc23)CC1=O` [I-N-212, 2-amino-6-fluoro-N-(5-fluoro-4-(4-methyl-3-oxopiperazin-1-yl)pyridin-3-yl)pyrazolo[1,5-a]pyrimidine-3-carboxamide], the Ki was 0.01 to 1 µM.

In the case of `CN1CC2(CCN(c3c(F)cncc3NC(=O)c3c(N)nn4cc(F)cnc34)CC2)OC1=O` [I-N-229, 2-amino-6-fluoro-N-(5-fluoro-4-(3-methyl-2-oxo-1-oxa-3,8-diazaspiro[4.5]decan-8-yl)pyridin-3-yl)pyrazolo[1,5-a]pyrimidine-3-carboxamide], the Ki was 0.01 to 1 µM.

On to `COCC1CCN(c2ccncc2NC(=O)c2c(N)nn3cc(F)cnc23)CC1` [I-N-282, 2-amino-6-fluoro-N-(4-(4-(methoxymethyl)piperidin-1-yl)pyridin-3-yl)pyrazolo[1,5-a]pyrimidine-3-carboxamide], for which the Ki fell in the range of 0.01 to 1 µM.

Take `Nc1nn2cc(Cl)cnc2c1C(=O)Nc1cnccc1N1CCN(C2CC2)CC1` [I-N-64, 2-amino-6-chloro-N-(4-(4-cyclopropylpiperazin-1-yl)pyridin-3-yl)pyrazolo[1,5-a]pyrimidine-3-carboxamide]: the Ki lay within 0.01 to 1 µM.

In the case of `N#CCc1cnc2c(C(=O)Nc3cnccc3OCC(F)(F)F)c(N)nn2c1` [I-O-34, 2-amino-6-(cyanomethyl)-N-(4-(2,2,2-trifluoroethoxy)pyridin-3-yl)pyrazolo[1,5-a]pyrimidine-3-carboxamide], the Ki was below 0.01 µM.

With `Nc1nn2cc(F)cnc2c1C(=O)Nc1cncc(F)c1N1CCN(S(=O)(=O)C2CCOCC2)CC1` [I-N-158, 2-amino-6-fluoro-N-(5-fluoro-4-(4-((tetrahydro-2H-pyran-4-yl)sulfonyl)piperazin-1-yl)pyridin-3-yl)pyrazolo[1,5-a]pyrimidine-3-carboxamide], the Ki lay in the range of 0.01 to 1 µM.

Regarding `Nc1nn2cc(Cl)cnc2c1C(=O)Nc1cnccc1OC1CCCOC1` (stereo not drawn) [I-O-65, 2-amino-6-chloro-N-(4-((tetrahydro-2H-pyran-3-yl)oxy)pyridin-3-yl)pyrazolo[1,5-a]pyrimidine-3-carboxamide], the Ki was 0.01 to 1 µM.

As to `Nc1nn2cc(F)cnc2c1C(=O)Nc1cnccc1N1CCN2CCC1CC2` [I-N-18, N-(4-(1,4-diazabicyclo[3.2.2]nonan-4-yl)pyridin-3-yl)-2-amino-6-fluoropyrazolo[1,5-a]pyrimidine-3-carboxamide], the Ki was 0.01 to 1 µM.

For `Nc1nn2cc(F)cnc2c1C(=O)Nc1cncc(F)c1N1CCN(C(=O)C2CC2)CC1` [I-N-276, 2-amino-N-(4-(4-(cyclopropanecarbonyl)piperazin-1-yl)-5-fluoropyridin-3-yl)-6-fluoropyrazolo[1,5-a]pyrimidine-3-carboxamide], the Ki lay in the range of 0.01 to 1 µM.

Regarding `Nc1nn2cc(F)cnc2c1C(=O)Nc1cnccc1N1CCC(c2nnco2)CC1` [I-N-268, N-(4-(4-(1,3,4-oxadiazol-2-yl)piperidin-1-yl)pyridin-3-yl)-2-amino-6-fluoropyrazolo[1,5-a]pyrimidine-3-carboxamide], the Ki fell in the range of 0.01 to 1 µM.

Consider `CO[C@@H]1CCN(C(=O)C2CCN(c3ccncc3NC(=O)c3c(N)nn4cc(F)cnc34)CC2)C1` [I-G-93, (R)-2-amino-6-fluoro-N-(4-(4-(3-methoxypyrrolidine-1-carbonyl)piperidin-1-yl)pyridin-3-yl)pyrazolo[1,5-a]pyrimidine-3-carboxamide], for which the Ki was in the range of 0.01 to 1 µM.

`Nc1nn2cc(Cl)cnc2c1C(=O)Nc1cnccc1O[C@H]1CCOC1` [I-O-58, (S)-2-amino-6-chloro-N-(4-((tetrahydrofuran-3-yl)oxy)pyridin-3-yl)pyrazolo[1,5-a]pyrimidine-3-carboxamide]: the Ki fell in the range of 0.01 to 1 µM.

With `CN1CCN(C(=O)C2CCN(c3c(F)cncc3NC(=O)c3c(N)nn4cc(F)cnc34)CC2)CC1(C)C` [I-G-15, 2-amino-6-fluoro-N-(5-fluoro-4-(4-(3,3,4-trimethylpiperazine-1-carbonyl)piperidin-1-yl)pyridin-3-yl)pyrazolo[1,5-a]pyrimidine-3-carboxamide], the Ki was in the range of 0.01 to 1 µM.

Consider `Cc1ccncc1NC(=O)c1c(N)nn2cc(CC#N)cnc12` [I-C-3, 2-amino-6-(cyanomethyl)-N-(4-methylpyridin-3-yl)pyrazolo[1,5-a]pyrimidine-3-carboxamide], for which the Ki lay in the range of 0.01 to 1 µM.

`Nc1nn2cc(F)cnc2c1C(=O)Nc1cnccc1N1CCC(C(=O)N2CC(F)(F)C2)CC1` [I-G-80, 2-amino-N-(4-(4-(3,3-difluoroazetidine-1-carbonyl)piperidin-1-yl)pyridin-3-yl)-6-fluoropyrazolo[1,5-a]pyrimidine-3-carboxamide]: the Ki is 0.01 to 1 µM.

On to `Nc1nn2cc(F)cnc2c1C(=O)Nc1cnccc1-c1ccc(C(=O)N2CCN(C3COC3)CC2)cc1` [I-C-49, 2-amino-6-fluoro-N-(4-(4-(4-(oxetan-3-yl)piperazine-1-carbonyl)phenyl)pyridin-3-yl)pyrazolo[1,5-a]pyrimidine-3-carboxamide], for which the Ki was 0.01 to 1 µM.

Turning to `CN1CCCN(C(=O)C2CCN(c3c(F)cncc3NC(=O)c3c(N)nn4cc(F)cnc34)CC2)CC1` [I-G-6, 2-amino-6-fluoro-N-(5-fluoro-4-(4-(4-methyl-1,4-diazepane-1-carbonyl)piperidin-1-yl)pyridin-3-yl)pyrazolo[1,5-a]pyrimidine-3-carboxamide], the Ki fell in the range of 0.01 to 1 µM.

As to `CC1(C)CCCN1c1ccncc1NC(=O)c1c(N)nn2cc(F)cnc12` [I-N-220, 2-amino-N-(4-(2,2-dimethylpyrrolidin-1-yl)pyridin-3-yl)-6-fluoropyrazolo[1,5-a]pyrimidine-3-carboxamide], the Ki is 0.01 to 1 µM.

As for `CN1CCC(OC2CCN(c3ccncc3NC(=O)c3c(N)nn4cc(F)cnc34)CC2)CC1` [I-N-154, 2-amino-6-fluoro-N-(4-(4-((1-methylpiperidin-4-yl)oxy)piperidin-1-yl)pyridin-3-yl)pyrazolo[1,5-a]pyrimidine-3-carboxamide], the Ki was 0.01 to 1 µM.

Regarding `CS(=O)(=O)N1CCN(c2ccncc2NC(=O)c2c(N)nn3cc(F)cnc23)CC1` [I-N-178, 2-amino-6-fluoro-N-(4-(4-(methylsulfonyl)piperazin-1-yl)pyridin-3-yl)pyrazolo[1,5-a]pyrimidine-3-carboxamide], the Ki was 0.01 to 1 µM.

`CN(C)C(=O)C1CCCN(c2ccncc2NC(=O)c2c(N)nn3cc(F)cnc23)C1` (stereo not drawn) [I-N-290, 2-amino-N-(4-(3-(dimethylcarbamoyl)piperidin-1-yl)pyridin-3-yl)-6-fluoropyrazolo[1,5-a]pyrimidine-3-carboxamide]: the Ki was 0.01 to 1 µM.

As for `Nc1nn2cc(Cl)cnc2c1C(=O)Nc1cnccc1N1CCn2cncc2C1` [I-N-75, 2-amino-6-chloro-N-(4-(5,6-dihydroimidazo[1,5-a]pyrazin-7(8H)-yl)pyridin-3-yl)pyrazolo[1,5-a]pyrimidine-3-carboxamide], the Ki lay in the range of 0.01 to 1 µM.

Consider `CC1(C)CN(C(=O)C2CCN(c3c(F)cncc3NC(=O)c3c(N)nn4cc(F)cnc34)CC2)CCN1` [I-G-27, 2-amino-N-(4-(4-(3,3-dimethylpiperazine-1-carbonyl)piperidin-1-yl)-5-fluoropyridin-3-yl)-6-fluoropyrazolo[1,5-a]pyrimidine-3-carboxamide], for which the Ki is 0.01 to 1 µM.

In the case of `Nc1nn2cc(Cl)cnc2c1C(=O)Nc1cnccc1Oc1cccnc1` [I-O-70, 2-amino-6-chloro-N-(4-(pyridin-3-yloxy)pyridin-3-yl)pyrazolo[1,5-a]pyrimidine-3-carboxamide], the Ki was in the range of 0.01 to 1 µM.

Regarding `CN1CCC[C@@H]1C(=O)N1CCN(c2ccncc2NC(=O)c2c(N)nn3cc(F)cnc23)CC1` [I-N-199, (R)-2-amino-6-fluoro-N-(4-(4-(1-methylpyrrolidine-2-carbonyl)piperazin-1-yl)pyridin-3-yl)pyrazolo[1,5-a]pyrimidine-3-carboxamide], the Ki is 0.01 to 1 µM.

Turning to `CNC1CCN(c2ccncc2NC(=O)c2c(N)nn3cc(Cl)cnc23)CC1` [I-N-87, 2-amino-6-chloro-N-(4-(4-(methylamino)piperidin-1-yl)pyridin-3-yl)pyrazolo[1,5-a]pyrimidine-3-carboxamide], the Ki lay in the range of 0.01 to 1 µM.
